Experimental data reported in the SangsterLogP compilation.

Test: method code SF-AS, from DOI: 10.1021/jm00252a008, PMID: 4598022

Q: With `O=C1NC(=S)SC1=Cc1ccc([N+](=O)[O-])o1` as the molecule, how does the logP read?
A: The logP was 0.74.

Q: For `C=CCN=C1SC(=Cc2ccc([N+](=O)[O-])o2)C(=O)N1CC=C`, which logP is on record?
A: The logP was 1.46.

Q: For `CCN1C(=N)SC(=Cc2ccc([N+](=O)[O-])o2)C1=O`, which logP is on record?
A: Its logP is 1.44.

Q: Which logP does the source give for `CCCN1C(=O)/C(=C/c2ccc([N+](=O)[O-])o2)S/C1=N\C(C)=O` here?
A: Its logP is 1.17.

Q: For `CC(=O)N=C1S/C(=C\c2ccc([N+](=O)[O-])o2)C(=O)N1C` (stereo in doubt), which logP is on record?
A: The logP was 1.21.

Q: Which logP does the source give for `O=C1NC(=S)SC1=CC=Cc1ccc([N+](=O)[O-])o1` here?
A: Its logP is 0.93.

Q: Which logP does the source give for `CCN1C(=O)C(=Cc2ccc([N+](=O)[O-])o2)S/C1=N\C(C)=O` here?
A: The logP was 1.21.

Q: Which logP does the source give for `CCCN1C(=O)S/C(=C\c2ccc([N+](=O)[O-])o2)C1=O` here?
A: Its logP is 2.4.

Q: With `CN1C(=N)S/C(=C/c2ccc([N+](=O)[O-])o2)C1=O` as the molecule, how does the logP read?
A: The logP was 1.44.

Q: With `CC(=O)N(C)C1=NC(=O)/C(=C/c2ccc([N+](=O)[O-])o2)S1` as the molecule, how does the logP read?
A: The logP was 1.05.

Q: Which logP does the source give for `C/N=C1\SC(=Cc2ccc([N+](=O)[O-])o2)C(=O)N1C` here?
A: Its logP is 1.42.

Q: With `C/N=C1\NC(=O)/C(=C/c2ccc([N+](=O)[O-])o2)S1` as the molecule, how does the logP read?
A: Its logP is 1.16.

Q: With `CC(=O)N(C)C1=NC(=O)/C(=C\C=C/c2ccc([N+](=O)[O-])o2)S1` as the molecule, how does the logP read?
A: The logP was 1.21.

Q: Which logP does the source give for `CCN1C(=O)S/C(=C/c2ccc([N+](=O)[O-])o2)C1=O` here?
A: The logP was 2.29.

Q: For `CC(C)N=C1SC(=Cc2ccc([N+](=O)[O-])o2)C(=O)N1C(C)C`, which logP is on record?
A: The logP was 1.22.

Q: With `O=c1cc(-c2ccc([N+](=O)[O-])o2)sc(=O)[nH]1` as the molecule, how does the logP read?
A: Its logP is 0.55.

Q: For `CCN(CC)C1=NC(=O)/C(=C/c2ccc([N+](=O)[O-])o2)S1`, which logP is on record?
A: The logP was 1.22.

Q: With `C/N=C1/NC(=O)/C(=C/C=C/c2ccc([N+](=O)[O-])o2)S1` as the molecule, how does the logP read?
A: Its logP is 1.35.

Q: For `CN1C(=O)SC(=CC=Cc2ccc([N+](=O)[O-])o2)C1=O`, which logP is on record?
A: The logP was 1.4.

Q: Which logP does the source give for `CCCN=C1SC(=Cc2ccc([N+](=O)[O-])o2)C(=O)N1CCC` here?
A: The logP was 1.32.

Q: Which logP does the source give for `CN(C)C1=NC(=O)/C(=C/c2ccc([N+](=O)[O-])o2)S1` here?
A: Its logP is 1.16.

Q: For `CNc1nc(=O)cc(-c2ccc([N+](=O)[O-])o2)s1`, which logP is on record?
A: Its logP is 0.86.

Q: With `C=CCN1C(=O)S/C(=C\c2ccc([N+](=O)[O-])o2)C1=O` as the molecule, how does the logP read?
A: Its logP is 2.22.

Q: For `CC(C)N1C(=O)S/C(=C\c2ccc([N+](=O)[O-])o2)C1=O`, which logP is on record?
A: Its logP is 2.42.

Q: With `NC1=NC(=O)C(=Cc2ccc([N+](=O)[O-])o2)S1` (stereo in doubt) as the molecule, how does the logP read?
A: The logP was 1.09.

Q: With `O=C1NC(=Nc2ccccc2)SC1=Cc1ccc([N+](=O)[O-])o1` as the molecule, how does the logP read?
A: The logP was 1.41.

Q: With `CN1C(=O)/C(=C\c2ccc([N+](=O)[O-])o2)SC1=S` as the molecule, how does the logP read?
A: Its logP is 1.06.

Q: For `CSC1=NC(=O)C(=Cc2ccc([N+](=O)[O-])o2)S1` (stereo in doubt), which logP is on record?
A: The logP was 1.41.

Q: For `CN1C(=O)S/C(=C\c2ccc([N+](=O)[O-])o2)C1=O`, which logP is on record?
A: The logP was 1.78.

Q: With `CC(=O)Nc1nc(=O)cc(-c2ccc([N+](=O)[O-])o2)s1` as the molecule, how does the logP read?
A: Its logP is 1.01.

Q: For `CC(=O)NC1=NC(=O)/C(=C\C=Cc2ccc([N+](=O)[O-])o2)S1` (stereo in doubt), which logP is on record?
A: The logP was 0.95.

Q: Which logP does the source give for `CC(C)/N=C1\NC(=O)/C(=C/c2ccc([N+](=O)[O-])o2)S1` here?
A: The logP was 1.29.

Q: Which logP does the source give for `CC/N=C1\NC(=O)/C(=C/c2ccc([N+](=O)[O-])o2)S1` here?
A: Its logP is 1.16.

Q: For `CN(C)c1nc(=O)cc(-c2ccc([N+](=O)[O-])o2)s1`, which logP is on record?
A: The logP was 0.55.

Q: For `CC(=O)NC1=NC(=O)/C(=C/c2ccc([N+](=O)[O-])o2)S1`, which logP is on record?
A: The logP was 1.03.

Q: With `O=C1NC(=O)/C(=C\c2ccc([N+](=O)[O-])o2)S1` as the molecule, how does the logP read?
A: The logP was 0.63.

Q: For `CCC/N=C1\NC(=O)/C(=C/c2ccc([N+](=O)[O-])o2)S1`, which logP is on record?
A: The logP was 1.24.
